The values that follow come from patent US10954214B2 (Janssen Pharmaceutica NV, priority 2016, dated 2021).

The test system of experiment [1] is IL6 secretion by OCI-LY3 ABC-DLBCL cells. In words: Human IL6 Mesoscale assay (OCI-LY3). The experiment is classed as cell-based. The conditions noted are these: Homo sapiens, 24 h. Summed up: (§1)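 Compounds tested from 15 μM to 58.6 nM (twofold, 9 concentrations) on 100,000 cells per well over 24 h at 37° C, without beta-mercaptoethanol. Secreted cytokine in supernatant detected by MSD electrochemiluminescence; scaling used DMSO as maximum and RN486 as full inhibition.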

The target of experiment [2] is full-length MALT1 protein (Strep-MALT1(1-824)-His) (Homo sapiens (Human), UniProt Q9UDY8). In words: MALT1 Biochemical Protease Assay (Ac-LRSR-AMC substrate). The conditions noted are these: 10 nM FL MALT1, 200 μM Ac-LRSR-AMC, 4 h at RT; read-out: MALT1_Biochemical activity (Ac-LRSR-amc) IC50. Summed up:
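Fluorescence from AMC release off the quenched LRSR substrate was read after a 4 h reaction at RT. Values were normalised to no-enzyme and uninhibited controls and fitted for IC50 and Hill coefficient.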

Experiment [3] has as its system IL10 secretion by OCI-LY3 ABC-DLBCL cells. In words: Human IL10 Mesoscale assay (OCI-LY3). The conditions noted are these: Homo sapiens, 24 h. The experiment is classed as cell-based. Summed up:
as §1

Sequence of full-length MALT1 protein (Strep-MALT1(1-824)-His) (Q9UDY8 whole entry): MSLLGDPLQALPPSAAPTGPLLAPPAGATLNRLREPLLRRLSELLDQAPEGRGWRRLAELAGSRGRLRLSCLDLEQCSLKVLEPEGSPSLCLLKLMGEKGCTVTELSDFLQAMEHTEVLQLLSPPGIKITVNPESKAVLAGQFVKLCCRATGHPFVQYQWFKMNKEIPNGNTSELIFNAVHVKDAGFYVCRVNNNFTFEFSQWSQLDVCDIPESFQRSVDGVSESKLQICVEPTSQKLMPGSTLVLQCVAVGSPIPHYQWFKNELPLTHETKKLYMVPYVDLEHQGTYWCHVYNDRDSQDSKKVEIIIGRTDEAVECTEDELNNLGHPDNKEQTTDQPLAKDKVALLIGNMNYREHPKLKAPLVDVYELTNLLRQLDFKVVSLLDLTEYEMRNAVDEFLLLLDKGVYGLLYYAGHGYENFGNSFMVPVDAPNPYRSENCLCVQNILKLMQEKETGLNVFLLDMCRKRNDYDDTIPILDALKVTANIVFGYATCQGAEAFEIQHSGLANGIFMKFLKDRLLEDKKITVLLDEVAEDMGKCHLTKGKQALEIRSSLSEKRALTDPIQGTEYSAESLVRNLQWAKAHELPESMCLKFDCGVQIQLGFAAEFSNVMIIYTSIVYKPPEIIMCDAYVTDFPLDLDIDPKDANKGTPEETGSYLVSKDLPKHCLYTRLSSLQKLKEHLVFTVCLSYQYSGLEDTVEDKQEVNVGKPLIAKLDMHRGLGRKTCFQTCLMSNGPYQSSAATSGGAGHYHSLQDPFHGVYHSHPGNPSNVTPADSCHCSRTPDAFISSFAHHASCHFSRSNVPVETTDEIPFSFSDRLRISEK

Take `COc1cc(NC(=O)c2cnn(-c3cccc4c(=O)[nH]ccc34)c2C(F)(F)F)ccn1` [Cpd 360, N-(2-methoxypyridin-4-yl)-1-(1-oxo-1,2-dihydroisoquinolin-5-yl)-5-(trifluoromethyl)-1H-pyrazole-4-carboxamide]: the IC50 turned out to be 20 nM in experiment [1], 2690 nM in experiment [2] and 20 nM in experiment [3].

On to `O=C(Nc1ccnc(C(F)(F)F)c1)c1cnn(-c2cncc3sccc23)c1C(F)(F)F` [Cpd 364, 1-(thieno[2,3-c]pyridin-4-yl)-5-(trifluoromethyl)-N-(2-(trifluoromethyl)pyridin-4-yl)-1H-pyrazole-4-carboxamide], for which the IC50 worked out at 28 nM in experiment [1], 98 nM in experiment [2] and 31 nM in experiment [3].

On to `O=C(Nc1cnc(-n2nccn2)c(Cl)c1)c1cnn(-c2cnc(C3CCCO3)c3ccccc23)c1C(F)(F)F` (stereo not drawn) [Cpd 365, N-(5-chloro-6-(2H-1,2,3-triazol-2-yl)pyridin-3-yl)-1-(1-(tetrahydrofuran-2-yl)isoquinolin-4-yl)-5-(trifluoromethyl)-1H-pyrazole-4-carboxamide], for which the 50% inhibitory concentration (IC50) was 25 nM in experiment [1], 60 nM in experiment [2] and 24 nM in experiment [3].

For the compound `O=C(Nc1cnc(-n2nccn2)c(Cl)c1)c1cnn(-c2cnc(C3CCCO3)c3cccc(C4CCCO4)c23)c1C(F)(F)F` (stereo not drawn) [Cpd 366, 1-(1,5-bis(tetrahydrofuran-2-yl)isoquinolin-4-yl)-N-(5-chloro-6-(2H-1,2,3-triazol-2-yl)pyridin-3-yl)-5-(trifluoromethyl)-1H-pyrazole-4-carboxamide], the values for the IC50 in experiment [1], in experiment [2] and in experiment [3] were 107 nM, 8910 nM and 89 nM, respectively.

`O=C(Nc1cnc(-n2nccn2)c(Cl)c1)c1cnn(-c2cnc(C3COCCO3)c3ccccc23)c1C(F)(F)F` (stereo not drawn) [Cpd 367, 1-(1-(1,4-dioxan-2-yl)isoquinolin-4-yl)-N-(5-chloro-6-(2H-1,2,3-triazol-2-yl)pyridin-3-yl)-5-(trifluoromethyl)-1H-pyrazole-4-carboxamide]: the IC50 in experiment [1] was found to be 115 nM; in experiment [2], 110 nM; in experiment [3] it was 98 nM.

In the case of `CCOC(C)c1ncc(-n2ncc(C(=O)Nc3cnc(-n4nccn4)c(Cl)c3)c2C(F)(F)F)c2ccccc12` (stereo not drawn) [Cpd 368, N-(5-chloro-6-(2H-1,2,3-triazol-2-yl)pyridin-3-yl)-1-(1-(1-ethoxyethyl)isoquinolin-4-yl)-5-(trifluoromethyl)-1H-pyrazole-4-carboxamide], the results for the IC50 in experiment [1], in experiment [2] and in experiment [3] were 170 nM, 331 nM and 79 nM, respectively.

As for `O=C1CCC(c2ncc(-n3ncc(C(=O)Nc4cnc(-n5nccn5)c(Cl)c4)c3C(F)(F)F)c3ccccc23)N1` (stereo not drawn) [Cpd 369, N-(5-chloro-6-(2H-1,2,3-triazol-2-yl)pyridin-3-yl)-1-(1-(5-oxopyrrolidin-2-yl)isoquinolin-4-yl)-5-(trifluoromethyl)-1H-pyrazole-4-carboxamide], the values for the IC50 in experiment [1], in experiment [2] and in experiment [3] were 34 nM, 155 nM and 29 nM, respectively.

In the case of `O=C(Nc1cnc(-n2nccn2)c(Cl)c1)c1cnn(-c2cccc3nc(C4CCCO4)ccc23)c1C(F)(F)F` (stereo not drawn) [Cpd 372, N-(5-chloro-6-(2H-1,2,3-triazol-2-yl)pyridin-3-yl)-1-(2-(tetrahydrofuran-2-yl)quinolin-5-yl)-5-(trifluoromethyl)-1H-pyrazole-4-carboxamide], the IC50 in experiment [1] came to 12 nM; in experiment [2] it was 2000 nM; in experiment [3], 12 nM.

`CN(C=O)Cc1ncc(-n2ncc(C(=O)Nc3cnc(-n4nccn4)c(Cl)c3)c2C(F)(F)F)c2ccccc12` [Cpd 373, N-(5-chloro-6-(2H-1,2,3-triazol-2-yl)pyridin-3-yl)-1-(1-((N-methylformamido)methyl)isoquinolin-4-yl)-5-(trifluoromethyl)-1H-pyrazole-4-carboxamide]: the values for the IC50 in experiment [1], in experiment [2] and in experiment [3] were 17 nM, 138 nM and 12 nM, respectively.

With `CC(O)c1cc(-n2ncc(C(=O)Nc3cnc(-n4nccn4)c(Cl)c3)c2C(F)(F)F)c2ccccc2n1` (stereo not drawn) [Cpd 374, N-(5-chloro-6-(2H-1,2,3-triazol-2-yl)pyridin-3-yl)-1-(2-(1-hydroxyethyl)quinolin-4-yl)-5-(trifluoromethyl)-1H-pyrazole-4-carboxamide], the figures for the IC50 in experiment [1], in experiment [2] and in experiment [3] were 72 nM, 87 nM and 40 nM, respectively.

On to `Cc1ncc(NC(=O)c2cnn(-c3cnc(N)c4ccccc34)c2C(F)(F)F)cc1C(F)(F)F` [Cpd 377, 1-(1-aminoisoquinolin-4-yl)-N-(6-methyl-5-(trifluoromethyl)pyridin-3-yl)-5-(trifluoromethyl)-1H-pyrazole-4-carboxamide], for which the IC50 stood at 52 nM in experiment [1], 457 nM in experiment [2] and 56 nM in experiment [3].

Take `O=C(Nc1cnc(-n2nccn2)c(Cl)c1)c1cnn(-c2cnc(C3CCCN3)c3ccccc23)c1C(F)(F)F` (stereo not drawn) [Cpd 380, N-(5-chloro-6-(2H-1,2,3-triazol-2-yl)pyridin-3-yl)-1-(1-(pyrrolidin-2-yl)isoquinolin-4-yl)-5-(trifluoromethyl)-1H-pyrazole-4-carboxamide]: the IC50 is 46 nM in experiment [1], 447 nM in experiment [2] and 24 nM in experiment [3].

`O=C(Nc1cnc(-n2nccn2)c(Cl)c1)c1cnn(-c2cc(C3CCN3)nc3ccccc23)c1C(F)(F)F` (stereo not drawn) [Cpd 382, 1-(2-(azetidin-2-yl)quinolin-4-yl)-N-(5-chloro-6-(2H-1,2,3-triazol-2-yl)pyridin-3-yl)-5-(trifluoromethyl)-1H-pyrazole-4-carboxamide]: the IC50 in experiment [1] turned out to be 29 nM; in experiment [2], 331 nM; in experiment [3] it was 26 nM.

As for `CNC(=O)c1ncc(-n2ncc(C(=O)Nc3cnc(-n4nccn4)c(Cl)c3)c2C(F)(F)F)c2ccccc12` [Cpd 390, 4-(4-((5-chloro-6-(2H-1,2,3-triazol-2-yl)pyridin-3-yl)carbamoyl)-5-(trifluoromethyl)-1H-pyrazol-1-yl)-N-methylisoquinoline-1-carboxamide], the values for the IC50 in experiment [1], in experiment [2] and in experiment [3] were 98 nM, 102 nM and 83 nM, respectively.

`O=C(Nc1cnc(-n2nccn2)c(Cl)c1)c1cnn(-c2cnc(C(F)F)c3ccccc23)c1C(F)(F)F` [Cpd 394, N-(5-chloro-6-(2H-1,2,3-triazol-2-yl)pyridin-3-yl)-1-(1-(difluoromethyl)isoquinolin-4-yl)-5-(trifluoromethyl)-1H-pyrazole-4-carboxamide]: the IC50 in experiment [1] was determined as 50 nM; in experiment [2], 95 nM; in experiment [3] it was 36 nM.

With `O=C(Nc1cnc(-n2nccn2)c(Cl)c1)c1cnn(-c2c[n+]([O-])cc3sccc23)c1C(F)(F)F` [Cpd 409, 4-(4-((5-chloro-6-(2H-1,2,3-triazol-2-yl)pyridin-3-yl)carbamoyl)-5-(trifluoromethyl)-1H-pyrazol-1-yl)thieno[2,3-c]pyridine 6-oxide], the IC50 in experiment [1] was determined as 98 nM; in experiment [2], 2290 nM; in experiment [3] it was 95 nM.

As for `Cc1nc(-n2nccn2)c(Cl)cc1NC(=O)c1cnn(-c2c[n+]([O-])cc3sccc23)c1C(F)(F)F` [Cpd 410, 4-(4-((5-chloro-2-methyl-6-(2H-1,2,3-triazol-2-yl)pyridin-3-yl)carbamoyl)-5-(trifluoromethyl)-1H-pyrazol-1-yl)thieno[2,3-c]pyridine 6-oxide], the IC50 in experiment [1] stood at 93 nM; in experiment [2], 71 nM; in experiment [3], 68 nM.

With `N#Cc1cc(-n2ncc(C(=O)Nc3cnc(-n4nccn4)c(Cl)c3)c2C(F)(F)F)c2ccccc2n1` [Cpd 412, N-(5-chloro-6-(2H-1,2,3-triazol-2-yl)pyridin-3-yl)-1-(2-cyanoquinolin-4-yl)-5-(trifluoromethyl)-1H-pyrazole-4-carboxamide], the IC50 in experiment [1] is 1780 nM; in experiment [2], 22 nM; in experiment [3], 912 nM.

Turning to `COc1cc(-n2ncc(C(=O)Nc3cnc(-n4nccn4)c(Cl)c3)c2C(F)(F)F)c2ccccc2n1` [Cpd 417, N-(5-chloro-6-(2H-1,2,3-triazol-2-yl)pyridin-3-yl)-1-(2-methoxyquinolin-4-yl)-5-(trifluoromethyl)-1H-pyrazole-4-carboxamide], the values for the IC50 in experiment [1], in experiment [2] and in experiment [3] were 437 nM, 174 nM and 309 nM, respectively.

Regarding `COc1ccc2c(-n3ncc(C(=O)Nc4cnc(-n5nccn5)c(Cl)c4)c3C(F)(F)F)cccc2n1` [Cpd 420, N-(5-chloro-6-(2H-1,2,3-triazol-2-yl)pyridin-3-yl)-1-(2-methoxyquinolin-5-yl)-5-(trifluoromethyl)-1H-pyrazole-4-carboxamide], the IC50 stood at 447 nM in experiment [1], 10 nM in experiment [2] and 339 nM in experiment [3].

With `COc1ncc(-n2ncc(C(=O)Nc3cnc(-n4nccn4)c(Cl)c3)c2C(F)(F)F)c2ccccc12` [Cpd 421, N-(5-chloro-6-(2H-1,2,3-triazol-2-yl)pyridin-3-yl)-1-(1-methoxyisoquinolin-4-yl)-5-(trifluoromethyl)-1H-pyrazole-4-carboxamide], the figures for the IC50 in experiment [1], in experiment [2] and in experiment [3] were 457 nM, 20 nM and 479 nM, respectively.

Take `CCOc1ncc(-n2ncc(C(=O)Nc3cnc(-n4nccn4)c(Cl)c3)c2C(F)(F)F)c2ccccc12` [Cpd 422, N-(5-chloro-6-(2H-1,2,3-triazol-2-yl)pyridin-3-yl)-1-(1-ethoxyisoquinolin-4-yl)-5-(trifluoromethyl)-1H-pyrazole-4-carboxamide]: the IC50 is 191 nM in experiment [1], 11 nM in experiment [2] and 174 nM in experiment [3].
